Data as given in patent US20220389061A1, “IMMUNOMODULATORS” (priority 2019, published 2022).
Where two headings read alike, the source gives them in different places. Starred links: 1 amine or outer side, 2 acyl side, 3 side chain; linkers in the order of their positions; H or OH if unused. Positions of bridges follow the written chain, without caps; N, C: chain ends. Non-standard residues stand in square brackets, D forms with d. Residues, ends and D or L forms follow the SMILES beside them. Groups on a side chain read outwards from the residue. *: point of attachment. Trp(1-CH2COOH) = N[C@@H](Cc1cn(CC(=O)O)c2ccccc12)C(=O)O; X88 = Cc1cc([N+](=O)[O-])ccc1NC(=S)*; X68 = CC1(C)CCC(C)(C)c2cc(N*)ccc21; Hyp = O=C(O)[C@@H]1C[C@@H](O)CN1; X11 = S=C(Nc1ccccc1-c1ccccc1)*; X30 = FC(F)(F)c1ccc(N*)c(Cl)c1; pNA = O=[N+]([O-])c1ccc(N*)cc1; NMeNle = CCCC[C@H](NC)C(=O)O; X7 = S=C(Nc1ccc2cc[nH]c2c1)*; X5 = S=C(Nc1cccc2ccccc12)*; X64 = COc1cc(OC)c(N*)cc1Cl; NMeA = CN[C@@H](C)C(=O)O; Dab = NCC[C@H](N)C(=O)O; X45 = c1ccc2sc(N*)cc2c1; Dap = NC[C@H](N)C(=O)O; X37 = Fc1cc(F)cc(N*)c1; CO = O=C([*:1])[*:2]

Target: T1, PD-1/PD-L1 (Homo sapiens, UniProt Q9NZQ7)
T1 construct: TVMV protease site linker (C); made in house; host or cells: HEK293T cells
Assay: PD-1/PD-L1 Homogenous Time-Resolved Fluorescence (HTRF) binding assay
Source text: The ability of the compounds of formula (I) to bind to PD-L1 was investigated using a PD-1/PD-L1 Homogenous Time-Resolved Fluorescence (HTRF) binding assay.
The interaction of PD-1 and PD-L1 can be assessed using soluble, purified preparations of the extracellular domains of the two proteins. The PD-1 and PD-L1 protein extracellular domains were expressed as fusion proteins with detection tags, for PD-1, the tag was the Fc portion of Immunoglobulin (PD-1-Ig) and for PD-L1 it was the 6 histidine motif (PD-L1-His). All binding studies were performed in an HTRF assay buffer consisting of dPBS supplemented with 0.1% […] bovine serum albumin and 0.05% (v/v) Tween-20. For the h/PD-L1-His binding assay, inhibitors were pre-incubated with PD-L1-His (10 nM final) for 15 m in 4 μl of assay buffer, followed by addition of PD-1-Ig (20 nM final) in 1 μl of assay buffer and further incubation for 15 m. HTRF detection was achieved using europium crypate-labeled anti-Ig (1 nM final) and allophycocyanin (APC) labeled anti-His (20 nM final). Antibodies were diluted in HTRF detection buffer and 5 μl was dispensed on top of the binding reaction. […] Additional binding assays were established between the human proteins PD-1-Ig/PD-L2-His (20 & 5 nM, respectively) and CD80-His/PD-L1-Ig (100 & 10 nM, respectively). […]

[1] = PD-L1-His 10 nM pre-incubated with inhibitor, PD-1-Ig 20 nM, read-out: HTRF IC50

T1 sequence (Q9NZQ7 18-239): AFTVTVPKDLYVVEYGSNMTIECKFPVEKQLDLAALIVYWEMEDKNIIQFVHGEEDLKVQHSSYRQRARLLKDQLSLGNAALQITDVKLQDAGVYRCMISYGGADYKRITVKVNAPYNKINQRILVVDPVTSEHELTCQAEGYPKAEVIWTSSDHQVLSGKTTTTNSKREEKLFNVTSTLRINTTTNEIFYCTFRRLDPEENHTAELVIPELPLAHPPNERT

SMILES | IC50 | IC50 [1]
CCCC[C@H]1C(=O)N(C)[C@@H](CCCC)C(=O)N[C@@H](CC(C)C)C(=O)N[C@H](C(=O)NCC(N)=O)CSCC(=O)N[C@@H](Cc2ccc(O)cc2)C(=O)N(C)[C@@H](C)C(=O)N[C@@H](CC(N)=O)C(=O)N2CCC[C@H]2C(=O)N[C@@H](CNC(=S)Nc2ccc([N+](=O)[O-])cc2C)C(=O)N[C@@H](CC(C)C)C(=O)N2C[C@H](O)C[C@H]2C(=O)N[C@@H](Cc2c[nH]c3ccccc23)C(=O)N[C@@H](CCNC(=S)Nc2ccc([N+](=O)[O-])cc2C)C(=O)N[C@@H](Cc2cn(CC(=O)O)c3ccccc23)C(=O)N1C [Example 1125] ({CH2CO}-Y[NMeA]NP[Dap](X88)L[Hyp]W[Dab](X88)[Trp(1-CH2COOH)][NMeNle][NMeNle]LCG-NH2; thioether N-14) | 6.7 nM | –
CCCC[C@H]1C(=O)N(C)[C@@H](CCCC)C(=O)N[C@@H](CC(C)C)C(=O)N[C@H](C(=O)NCC(N)=O)CSCC(=O)N[C@@H](Cc2ccc(O)cc2)C(=O)N(C)[C@@H](C)C(=O)N[C@@H](CC(N)=O)C(=O)N2CCC[C@H]2C(=O)N[C@@H](CN)C(=O)N[C@@H](CC(C)C)C(=O)N2C[C@H](O)C[C@H]2C(=O)N[C@@H](Cc2c[nH]c3ccccc23)C(=O)N[C@@H](CCNC(=O)Nc2cc3ccccc3s2)C(=O)N[C@@H](Cc2cn(CC(=O)O)c3ccccc23)C(=O)N1C [Example 3061] ({CH2CO}-Y[NMeA]NP[Dap]L[Hyp]W[Dab]([CO-X45])[Trp(1-CH2COOH)][NMeNle][NMeNle]LCG-NH2; thioether N-14) | – | 5.6 nM
CCCC[C@H]1C(=O)N(C)[C@@H](CCCC)C(=O)N[C@@H](CC(C)C)C(=O)N[C@H](C(=O)NCC(N)=O)CSCC(=O)N[C@@H](Cc2ccc(O)cc2)C(=O)N(C)[C@@H](C)C(=O)N[C@@H](CC(N)=O)C(=O)N2CCC[C@H]2C(=O)N[C@@H](CNC(=O)Nc2ccc([N+](=O)[O-])cc2)C(=O)N[C@@H](CC(C)C)C(=O)N2C[C@H](O)C[C@H]2C(=O)N[C@@H](Cc2c[nH]c3ccccc23)C(=O)N[C@@H](CCN)C(=O)N[C@@H](Cc2cn(CC(=O)O)c3ccccc23)C(=O)N1C [Example 1132] ({CH2CO}-Y[NMeA]NP[Dap]([CO-pNA])L[Hyp]W[Dab][Trp(1-CH2COOH)][NMeNle][NMeNle]LCG-NH2; thioether N-14) | 3.7 nM | –
CCCC[C@H]1C(=O)N(C)[C@@H](CCCC)C(=O)N[C@@H](CC(C)C)C(=O)N[C@H](C(=O)NCC(N)=O)CSCC(=O)N[C@@H](Cc2ccc(O)cc2)C(=O)N(C)[C@@H](C)C(=O)N[C@@H](CC(N)=O)C(=O)N2CCC[C@H]2C(=O)N[C@@H](CN)C(=O)N[C@@H](CC(C)C)C(=O)N2C[C@H](O)C[C@H]2C(=O)N[C@@H](Cc2c[nH]c3ccccc23)C(=O)N[C@@H](CCNC(=O)Nc2ccc(C(F)(F)F)cc2Cl)C(=O)N[C@@H](Cc2cn(CC(=O)O)c3ccccc23)C(=O)N1C [Example 1115] ({CH2CO}-Y[NMeA]NP[Dap]L[Hyp]W[Dab]([CO-X30])[Trp(1-CH2COOH)][NMeNle][NMeNle]LCG-NH2; thioether N-14) | – | 10 nM
CCCC[C@H]1C(=O)N(C)[C@@H](CCCC)C(=O)N[C@@H](CC(C)C)C(=O)N[C@H](C(=O)NCC(N)=O)CSCC(=O)N[C@@H](Cc2ccc(O)cc2)C(=O)N(C)[C@@H](C)C(=O)N[C@@H](CC(N)=O)C(=O)N2CCC[C@H]2C(=O)N[C@@H](CNC(=O)Nc2cc(F)cc(F)c2)C(=O)N[C@@H](CC(C)C)C(=O)N2C[C@H](O)C[C@H]2C(=O)N[C@@H](Cc2c[nH]c3ccccc23)C(=O)N[C@@H](CCN)C(=O)N[C@@H](Cc2cn(CC(=O)O)c3ccccc23)C(=O)N1C [Example 1079] ({CH2CO}-Y[NMeA]NP[Dap]([CO-X37])L[Hyp]W[Dab][Trp(1-CH2COOH)][NMeNle][NMeNle]LCG-NH2; thioether N-14) | – | 2.5 nM
CCCC[C@H]1C(=O)N(C)[C@@H](CCCC)C(=O)N[C@@H](CC(C)C)C(=O)N[C@H](C(=O)NCC(N)=O)CSCC(=O)N[C@@H](Cc2ccc(O)cc2)C(=O)N(C)[C@@H](C)C(=O)N[C@@H](CC(N)=O)C(=O)N2CCC[C@H]2C(=O)N[C@@H](CNC(=S)Nc2ccc3cc[nH]c3c2)C(=O)N[C@@H](CC(C)C)C(=O)N2C[C@H](O)C[C@H]2C(=O)N[C@@H](Cc2c[nH]c3ccccc23)C(=O)N[C@@H](CCN)C(=O)N[C@@H](Cc2cn(CC(=O)O)c3ccccc23)C(=O)N1C [Example 3049] ({CH2CO}-Y[NMeA]NP[Dap](X7)L[Hyp]W[Dab][Trp(1-CH2COOH)][NMeNle][NMeNle]LCG-NH2; thioether N-14) | – | 4.1 nM
CCCC[C@H]1C(=O)N(C)[C@@H](CCCC)C(=O)N[C@@H](CC(C)C)C(=O)N[C@H](C(=O)NCC(N)=O)CSCC(=O)N[C@@H](Cc2ccc(O)cc2)C(=O)N(C)[C@@H](C)C(=O)N[C@@H](CC(N)=O)C(=O)N2CCC[C@H]2C(=O)N[C@@H](CNC(=O)Nc2cc(Cl)c(OC)cc2OC)C(=O)N[C@@H](CC(C)C)C(=O)N2C[C@H](O)C[C@H]2C(=O)N[C@@H](Cc2c[nH]c3ccccc23)C(=O)N[C@@H](CCNC(=O)Nc2cc(Cl)c(OC)cc2OC)C(=O)N[C@@H](Cc2cn(CC(=O)O)c3ccccc23)C(=O)N1C [Example 1082] ({CH2CO}-Y[NMeA]NP[Dap]([CO-X64])L[Hyp]W[Dab]([CO-X64])[Trp(1-CH2COOH)][NMeNle][NMeNle]LCG-NH2; thioether N-14) | – | 1.5 nM
CCCC[C@H]1C(=O)N(C)[C@@H](CCCC)C(=O)N[C@@H](CC(C)C)C(=O)N[C@H](C(=O)NCC(N)=O)CSCC(=O)N[C@@H](Cc2ccc(O)cc2)C(=O)N(C)[C@@H](C)C(=O)N[C@@H](CC(N)=O)C(=O)N2CCC[C@H]2C(=O)N[C@@H](CNC(=O)Nc2ccc3c(c2)C(C)(C)CCC3(C)C)C(=O)N[C@@H](CC(C)C)C(=O)N2C[C@H](O)C[C@H]2C(=O)N[C@@H](Cc2c[nH]c3ccccc23)C(=O)N[C@@H](CCN)C(=O)N[C@@H](Cc2cn(CC(=O)O)c3ccccc23)C(=O)N1C [Example 3046] ({CH2CO}-Y[NMeA]NP[Dap]([CO-X68])L[Hyp]W[Dab][Trp(1-CH2COOH)][NMeNle][NMeNle]LCG-NH2; thioether N-14) | – | 3.3 nM
CCCC[C@H]1C(=O)N(C)[C@@H](CCCC)C(=O)N[C@@H](CC(C)C)C(=O)N[C@H](C(=O)NCC(N)=O)CSCC(=O)N[C@@H](Cc2ccc(O)cc2)C(=O)N(C)[C@@H](C)C(=O)N[C@@H](CC(N)=O)C(=O)N2CCC[C@H]2C(=O)N[C@@H](CN)C(=O)N[C@@H](CC(C)C)C(=O)N2C[C@H](O)C[C@H]2C(=O)N[C@@H](Cc2c[nH]c3ccccc23)C(=O)N[C@@H](CCNC(=S)Nc2cccc3ccccc23)C(=O)N[C@@H](Cc2cn(CC(=O)O)c3ccccc23)C(=O)N1C [Example 3029] ({CH2CO}-Y[NMeA]NP[Dap]L[Hyp]W[Dab](X5)[Trp(1-CH2COOH)][NMeNle][NMeNle]LCG-NH2; thioether N-14) | – | 0.1 nM
CCCC[C@H]1C(=O)N(C)[C@@H](CCCC)C(=O)N[C@@H](CC(C)C)C(=O)N[C@H](C(=O)NCC(N)=O)CSCC(=O)N[C@@H](Cc2ccc(O)cc2)C(=O)N(C)[C@@H](C)C(=O)N[C@@H](CC(N)=O)C(=O)N2CCC[C@H]2C(=O)N[C@@H](CNC(=S)Nc2ccccc2-c2ccccc2)C(=O)N[C@@H](CC(C)C)C(=O)N2C[C@H](O)C[C@H]2C(=O)N[C@@H](Cc2c[nH]c3ccccc23)C(=O)N[C@@H](CCNC(=S)Nc2ccccc2-c2ccccc2)C(=O)N[C@@H](Cc2cn(CC(=O)O)c3ccccc23)C(=O)N1C [Example 1128] ({CH2CO}-Y[NMeA]NP[Dap](X11)L[Hyp]W[Dab](X11)[Trp(1-CH2COOH)][NMeNle][NMeNle]LCG-NH2; thioether N-14) | – | 0.6 nM
